From patent US7169756B2, “Streptogramin antibiotics” (priority 2005, dated 2007)
Bridge positions count the residues as written; N and C are the ends. Square brackets hold non-standard residues; d marks the D form. Peptide text beside a SMILES is read from it. * marks the point of attachment. Picolinoyl(3-OH) = O=C(c1ncccc1O)*; Phg = N[CH](C(=O)O)c1ccccc1; Abu = CC[CH](N)C(=O)O; Dap = NC[CH](N)C(=O)O

Columns and labels:
in vitro translation = test: In Vitro Translation Assay; assay type: biochemical; conditions: FIG. 6; 15 min preincubation, 1 hr at 37° C., 5% DMSO; concentration not given
Experimental: Inhibition of translation was monitored using an ActivePro In Vitro Translation Kit from Ambion. Briefly, a reaction mixture was prepared as per the manufacturer's instructions that contained all of the constituents necessary (including [^35S]-methionine) except for DNA template. These mixtures were then preincubated for 15 min at room temperature in the presence or absence of various antibiotics. Subsequent to the preincubation period, a control template containing a chloramphenicol acetyltransferase gene under control of a bacteriophage T7 promoter was added and the reaction carried out for 1 hr at 37° C. Due to the insoluble nature of some of the antibiotics, the final DMSO concentration in each reaction including controls was maintained at 5% (v/v). Aliquots were taken after 1 hr, and separated on SDS polyacrylamide gels. The efficiency of translation of ^35S-labeled […] was analyzed and quantified using a Typhoon 9200 variable mode imager (Image-Quant 5.2 software).

E. coli BAS901/pUCVgb = test: disk assay, zone of growth inhibition; assay type: cell-based, Escherichia coli; conditions: Vgb constitutively expressed
Source text: (§1) A hyperpermeable E. coli strain, E. coli BAS901, harboring a plasmid constitutively expressing Vgb was created for in vivo studies. The plasmids pVGB, described previously in [14], and […] were digested with Xbal and BamHI, to yield an approximately 1 kb fragment containing a ribosomal binding site upstream of vgb, and linearized pUC19 backbone, respectively. The vgb fragment was then subcloned into the linearized pUC19 backbone downstream of pLac yielding pUC19-VGB. Both pUC19-VGB and pUC19 were transformed E. coli BAS901.
(§2) The antibiotic activity of the peptides synthesized in this study was initially assayed using a disk assay where samples were applied to sterile paper disks placed on a fresh lawn of bacterial culture on appropriate agar plates as required by the organism. These were then incubated for 16 hr at 37° C. and the zone of growth inhibition surrounding the disks recorded. For quantitative assessment of antibiotic activity in liquid culture, the minimal inhibitory concentration (MIC) of peptides was determined by serial dilution studies. The peptides and standard antibiotics were dissolved in DMSO and the final concentration of DMSO in the liquid cultures was 5%. Both S. aureus RN4220 and E. coli BAS901 were able to grow efficiently at this level of DMSO.
(§3) Crude material from the initial synthesis reactions was used to test the potential of the analogues as antibiotics in susceptibility assays where a solution of the compound was placed on a paper disk on a lawn of bacteria. As described above, E. coli BAS901 is deficient in the Imp/OstA protein, an outer membrane protein, involved in cell envelope biogenesis (1, 5). […] The antibiotic activity of the peptides synthesized in this study was initially assayed using a disk assay where samples were applied to sterile paper disks placed on a fresh lawn of bacterial culture on Tryptic Soya, Luria Broth, or Brain Heart Infusion Agar plates. These were then incubated for 16 hrs at 37° C. and the zone of growth inhibition surrounding the disks recorded.

E. coli BAS901/pUC19 = test: disk assay, zone of growth inhibition; assay type: cell-based, Escherichia coli
Source text: as §1, §2, §3

Human red blood cells = test: Hemolysis Assay; assay type: cell-based; conditions: 3 and 9 hr at 37° C., A412 of supernatant, gramicidin 30 μg/ml
Experimental: Human red blood cells were freshly harvested, washed with 0.85% saline solution with 5 mM EDTA and resuspended in the same solution to an A412 of 0.6. The hemolysis assay was performed in 1.5 ml Eppendorf tubes with the addition of either 5 in DMSO, saline, gramicidin (final concentration 30 μg/ml), or DMSO (5% final), for both 3 and 9 hr at 37° C. with occasion gentle mixing. The mixtures were then centrifuged and the A412 of the supernatant measured.

CCN(CC)CCS(=O)(=O)[C@@H]1CCN2C(=O)c3coc(n3)CC(=O)C[C@H](O)/C=C(C)/C=C/CNC(=O)/C=C/[C@@H](C)[C@@H](C(C)C)OC(=O)[C@@H]12 [dalfopristin] was tested, and the “inhibition of in vitro translation” value (in vitro translation) was “did block”.
In the case of CCC1NC(=O)C(NC(=O)c2ncccc2O)CNC(=O)C(c2ccccc2)NC(=O)C2CCCN2C(=O)C(Cc2ccccc2)NC(=O)C2CCCN2C1=O (stereo not drawn) [Compound 8] ({Picolinoyl(3-OH)}-[Dap][Abu]PFP[Phg]; lactam 1-C; configuration not given here), the “Zone of Inhibition” value (E. coli BAS901/pUCVgb) is reported as “n.i” and the “Zone of Inhibition” value (E. coli BAS901/pUC19) is reported as “no antibacterial activity and n.i”.
CC[C@H]1OC(=O)[C@H](C)[C@@H](O[C@H]2C[C@@](C)(OC)[C@@H](O)[C@H](C)O2)[C@H](C)[C@@H](O[C@@H]2O[C@H](C)C[C@H](N(C)C)[C@H]2O)[C@](C)(O)C[C@@H](C)C(=O)[C@H](C)[C@@H](O)[C@]1(C)O [erythromycin] was tested, and the “inhibition of in vitro translation” value (in vitro translation) was “did block”.
For O=C(N[C@H](CO)[C@H](O)c1ccc([N+](=O)[O-])cc1)C(Cl)Cl [chloramphenicol], the “inhibition of in vitro translation” value (in vitro translation) was “did block”.
For gramicidin S, the hemolytic activity (Human red blood cells) was “lysed cells rapidly”.
